Reference: US20220409646A1, “MALTOSYL-ISOMALTO-OLIGOSACCHARIDES REDUCE SYMPTOMS OF GASTROESOPHAGEAL REFLUX DISEASE” (ISOThrive Inc., priority 2021, published 2022)

Tested on: subjects with GERD
Details: human, in vivo
Description: The study began in March 2020 when a total of 110 subjects were screened for GERD using stringent eligibility criteria by the study coordinator and the principal investigator. […] The subjects acted as their own controls and there was no placebo arm. All subjects had active symptoms as determined by verbal history and daily ReQuest (RQ) validated GERD questionnaire symptom scores above specified thresholds, or GERD symptoms at four or more days per week.
As of May 2021, 44 subjects had completed the following protocol. […] Symptom evaluation for each included: RQ_GI: acid and abdominal (upper/lower) complaints, nausea; RQ_WSO: general well-being, sleep disturbances, and other complaints; and RQ_TOT: the sum of both. The Short Form 36 Health Survey validated questionnaire (see webpage physio-pedia.com/36-Item_Short_Form_Survey_(SF-36)) was used to assess quality of life. The SF-36 form was completed by subjects on day seven of week zero as well as on each day seven per week during the study duration. The subjects had to report any usage of GERD medications such as PPIs, H2 antagonists, and acids throughout the study, as well as any changes in their other medications. The primary endpoint was tolerability, defined as ending on week four with a request symptom score and a SF-36 score that was at or better than the baseline week zero score (determined as >0% reduction in weekly mean RQ symptom scores as % from baseline to week 4). Statistical analysis was done using the Wilcoxon signed-rank test with multiple comparison correction. In addition, a comparison was made of the number of days without acid complaints per week, or the heartburn-free days per week, for week four compared to the week zero baseline.
It was taken 1 g daily at bedtime.
All subjects had active GERD symptoms as determined by the ReQuest validated GERD specific questionnaire and/or GERD symptoms at least 4 days per week. […] All subjects were screened per the eligibility criteria delineated in this protocol by the study coordinator. The study was done remotely. There was communication but no in person contact or visits with the study coordinator.
Two phases were designed into this study. Phase 1 was the Screening Phase (SP). Phase 2 was the Tolerability Phase (TP). Subjects were instructed to take a daily GERD symptom questionnaire, the ReQuest Short Version, daily throughout the study. At five timepoints, specific scores were established for comparison and statistical analysis.

nausea, number of patients: 2 patients
nausea, share of patients: 5%
subjects who either did not improve or got worse: Five
worsening of RQ_GI (gastrointestinal symptoms), number of subjects: 5 of 44
worsening of RQ_TOT (total scores), number of subjects: 4 of 44
worsening of RQ_TOT (total scores), share of subjects: 9%
Substance: maltosyl-isomaltooligosaccharides [ISOT-101]
ISOT-101-related adverse events: no ISOT-101-related adverse events
tolerability (in words): well tolerated
